Laboratory results reported in PubChem BioAssay AID1963829 (Molecular Pharmacology Branch, DTP, NCI, 2024).

Test system: 935938-334-R-J1-PDC complex spheroid viability
Experiment: Anticancer human tumor 935938-334-R-J1-PDC patient-derived small intestine adenocarcinoma cell line growth inhibition [POLQ]
Conditions: for IC50: curve of first compound; for viability, T/C: stronger effect = lower value
Method: Multicellular complex tumor spheroid response to Polymerase (POL) inhibitors (novobiocin, ART-558, RP6685) in combination with a variety of drugs and investigational agents in selected tumor cell lines
The POL inhibitors (novobiocin, ART-558, and RP6685) were evaluated both individually and in combination with standard of care and investigational anticancer small molecules within a complex spheroid model of solid tumors. . Complex spheroids include a stromal component modeled by human endothelial cells (HUVEC) and fibroblasts modeled by human mesenchymal stem cells (MSCs). The concentration ranges selected for each drug and investigational agent were based upon clinically achievable concentrations if the clinical Cmax of the agent was known.
Compounds. The drugs and investigational agents: novobiocin (NSC847541), ART-558 (NSC835418), RP-6685 (NSC848927), peposertib (NSC802822), ceralasertib (NSC780249), elimusertib (NSC800525), camonsertib (NSC841442), AZD-1390 (NSC803789), olaparib (NSC753686), talazoparib (NSC767125), rucaparib (NSC756644), sotorasib (NSC818433), MRTX-1133 (NSC836407), SN-38 (NSC673596), topotecan (NSC609699), epotoside (NSC141540), doxorubicin (NSC123127), gemcitabine (NSC613327), 5-fluorouracil (NSC19893), paclitaxel (NSC125973), vemurafenib (NSC761431), MSA-2 (NSC828583), SN-011 (NSC837082), adavosertib (NSC754352), prexasertib (NSC758257), carboplatin (NSC241240) and oxaliplatin (NSC266046), were obtained from the National Cancer Institute (NCI) Developmental Therapeutics Program Chemical Repository (21). The FDA-approved anticancer drug set is available from the Developmental Therapeutics Program at https://dtp.cancer.gov/organization/dscb/obtaining/. […] The stock solutions were prepared in dimethyl sulfoxide (DMSO, Sigma-Aldrich, St. Louis, MO, cat. D2650), except for the platinum compounds which were prepared in saline (Quality Biological, Gaithersburg, MD, cat. 114-055-101), at 800-fold the tested concentration and stored at -70 degrees C prior to their use. All drugs and investigational agents were tested over a range starting from a high concentration at or near the clinical Cmax and decreasing in half-log increments. If the clinical Cmax for an agent had not been determined, the highest concentration tested was 10 microM, except for SN-38, which was tested at a high concentration of 1 microM.
Cell Culture. All cells were maintained in an incubator at 37 degrees C and 5% CO2 with 95% humidity. The PDC lines were cultured according to standard operating procedures established by the NCI PDMR (https://pdmr.cancer.gov). Table 3 of the manuscript, lists the cell lines along with the number of the three cell types plated to form the mct-spheroids and media for tumor cell growth. After thawing, all PDC lines, except 997537-175-T-J1-PDC and 415267-285-R-J2-PDC, were cultured in Matrigel-coated flasks prepared with a working solution of 1X Ham's F-12 nutrient mix, without supplementation (Thermo Fisher Scientific, cat. 11765054), 100 U/mL penicillin-streptomycin (Thermo Fisher Scientific, cat. 15140122), and 2.5% Matrigel (Corning Inc., Corning, NY, cat. 354248) for the first three passages. The two PDC lines 997537-175-T-J1-PDC and 415267-285-R-J2-PDC were cultured on uncoated flasks. The 857933-349-R-J2-PDC line was cultured in 6C/Colon 1B media containing advanced DMEM/F-12 (Thermo Fisher Scientific, cat. 12634028), 10 mM HEPES (Thermo Fisher Scientific, cat. 15630080), 1X GlutaMAX supplement (Thermo Fisher Scientific, cat. 35050061), 0.1 mg/mL primocin (InvivoGen, San Diego, CA, cat. ant-pm-2), 10% defined fetal bovine serum, heat inactivated (HyClone Laboratories Inc., Logan, UT, cat. SH30070.03HI), 50% L-WRN conditioned media (ATCC, cat. CRL-3276), 1.25 mM N-Acetyl-L-cysteine (Sigma-Aldrich, cat. A9165), 10 mM nicotinamide (Sigma-Aldrich, cat. N0636), 1X B-27 supplement (Thermo Fisher Scientific, cat. 17504044), 1X N-2 supplement (Thermo Fisher Scientific, cat. […]

[1] = second compound 0.0316 µM, first compound 0.0316 µM
[2] = second compound 0.0316 µM, first compound 0.1 µM
[3] = second compound 0.0316 µM, first compound 0.316 µM
[4] = second compound 0.0316 µM, first compound 1 µM
[5] = second compound 0.0316 µM, first compound 3.16 µM
[6] = second compound 0.0316 µM, first compound 10 µM
[7] = second compound 0.1 µM, first compound 0.0316 µM
[8] = second compound 0.1 µM, first compound 0.1 µM
[9] = second compound 0.1 µM, first compound 0.316 µM
[10] = second compound 0.1 µM, first compound 1 µM
[11] = second compound 0.1 µM, first compound 3.16 µM
[12] = second compound 0.1 µM, first compound 10 µM
[13] = second compound 0.316 µM, first compound 0.0316 µM
[14] = second compound 0.316 µM, first compound 0.1 µM
[15] = second compound 0.316 µM, first compound 0.316 µM
[16] = second compound 0.316 µM, first compound 1 µM
[17] = second compound 0.316 µM, first compound 3.16 µM
[18] = second compound 0.316 µM, first compound 10 µM
[19] = second compound 1 µM, first compound 0.0316 µM
[20] = second compound 1 µM, first compound 0.1 µM
[21] = second compound 1 µM, first compound 0.316 µM
[22] = second compound 1 µM, first compound 1 µM
[23] = second compound 1 µM, first compound 3.16 µM
[24] = second compound 1 µM, first compound 10 µM
[25] = second compound 3.16 µM, first compound 0.0316 µM
[26] = second compound 3.16 µM, first compound 0.1 µM
[27] = second compound 3.16 µM, first compound 0.316 µM
[28] = second compound 3.16 µM, first compound 1 µM
[29] = second compound 3.16 µM, first compound 3.16 µM
[30] = second compound 3.16 µM, first compound 10 µM
[31] = second compound 10 µM, first compound 0.0316 µM
[32] = second compound 10 µM, first compound 0.1 µM
[33] = second compound 10 µM, first compound 0.316 µM
[34] = second compound 10 µM, first compound 1 µM
[35] = second compound 10 µM, first compound 3.16 µM
[36] = second compound 10 µM, first compound 10 µM
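Note: spheroids exposed to drugs for seven days before viability read.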
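Throughout, for viability, T/C: 100% = DMSO vehicle control wells.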

CCc1cc2c(N3CCc4c(cc(Cn5ccnc5)cc4-c4cn(C)nc4C(F)(F)F)C3=O)cc(C)nc2c(OC)n1 + Nc1ccc(C#CCN(C(=O)Cc2ncc(C(F)(F)F)cc2C(F)(F)F)c2ccc(F)cc2)nn1
IC50 (second compound 0.0316 µM): > 10 µM | IC50 (second compound 0.1 µM): > 10 µM | IC50 (second compound 0.316 µM): > 10 µM | IC50 (second compound 1 µM): > 10 µM | IC50 (second compound 3.16 µM): > 10 µM | IC50 (second compound 10 µM): > 10 µM | viability, T/C [1]: 93.5% | viability, T/C [2]: 62% | viability, T/C [3]: 63.9% | viability, T/C [4]: 73.7% | viability, T/C [5]: 74.5% | viability, T/C [6]: 66.7% | viability, T/C [7]: 67.9% | viability, T/C [8]: 66.2% | viability, T/C [9]: 57.1% | viability, T/C [10]: 52.9% | viability, T/C [11]: 70.6% | viability, T/C [12]: 57.8% | viability, T/C [13]: 74.1% | viability, T/C [14]: 65% | viability, T/C [15]: 77.6% | viability, T/C [16]: 60.9% | viability, T/C [17]: 62.3% | viability, T/C [18]: 63.5% | viability, T/C [19]: 89.8% | viability, T/C [20]: 60.6% | viability, T/C [21]: 65% | viability, T/C [22]: 65.5% | viability, T/C [23]: 56.5% | viability, T/C [24]: 49.1% | viability, T/C [25]: 85.2% | viability, T/C [26]: 63.3% | viability, T/C [27]: 62% | viability, T/C [28]: 58.1% | viability, T/C [29]: 72.2% | viability, T/C [30]: 56.6% | viability, T/C [31]: 70.5% | viability, T/C [32]: 75.1% | viability, T/C [33]: 82.3% | viability, T/C [34]: 72.8% | viability, T/C [35]: 66.4% | viability, T/C [36]: 61.1%

CNCc1ccc(-c2[nH]c3cc(F)cc4c3c2CCNC4=O)cc1 + Nc1ccc(C#CCN(C(=O)Cc2ncc(C(F)(F)F)cc2C(F)(F)F)c2ccc(F)cc2)nn1
IC50 (second compound 0.0316 µM): > 10 µM | IC50 (second compound 0.1 µM): > 10 µM | IC50 (second compound 0.316 µM): > 10 µM | IC50 (second compound 1 µM): > 10 µM | IC50 (second compound 3.16 µM): > 10 µM | IC50 (second compound 10 µM): > 10 µM | viability, T/C [1]: 96.6% | viability, T/C [2]: 104% | viability, T/C [3]: 105% | viability, T/C [4]: 77.2% | viability, T/C [5]: 80% | viability, T/C [6]: 96.1% | viability, T/C [7]: 85.8% | viability, T/C [8]: 80.5% | viability, T/C [9]: 112% | viability, T/C [10]: 91.8% | viability, T/C [11]: 100% | viability, T/C [12]: 96.5% | viability, T/C [13]: 126% | viability, T/C [14]: 102% | viability, T/C [15]: 110% | viability, T/C [16]: 95.7% | viability, T/C [17]: 107% | viability, T/C [18]: 89.2% | viability, T/C [19]: 77.2% | viability, T/C [20]: 78.2% | viability, T/C [21]: 121% | viability, T/C [22]: 86.7% | viability, T/C [23]: 111% | viability, T/C [24]: 127% | viability, T/C [25]: 109% | viability, T/C [26]: 79% | viability, T/C [27]: 110% | viability, T/C [28]: 106% | viability, T/C [29]: 75% | viability, T/C [30]: 104% | viability, T/C [31]: 111% | viability, T/C [32]: 99.5% | viability, T/C [33]: 107% | viability, T/C [34]: 116% | viability, T/C [35]: 106% | viability, T/C [36]: 130%
